Entries after “also recorded” stand apart in the source; their conditions may differ.
Key:
[1] = tested on: vessels pre-contracted with endothelin; test: Relaxation of vessels pre-contracted with endothelin
[2] = tested on: isolated normal canine blood vessels; test: Organ chamber isometric force: relaxation of phenylephrine-contracted vessel rings; parameters: species or system dog; conditions: for relaxation: maximal dose (3×10^-6 M); for maximal response, percent change in tension from a contraction to phenylephrine: peptide 3 × 10^-6 M, mean ± SEM
Method: (§1) The results obtained are expressed as the means ±SEM. In organ chamber studies, n equals the number of dogs from which rings were taken. Rings with and without endothelium were studied in parallel, and Student's t-test for unpaired observations was used to determine statistical significance among the responses of rings with and without endothelium and between responses of arteries and veins. In rat studies, the data were analyzed using ANOVA for repeated measures followed by Fisher's least significant difference test when appropriate within the group. Data between groups were analyzed by Student's unpaired t-test. Statistical significance was determined at p<0.05.
Rings cut from femoral, saphenous, renal and pulmonary arteries and veins obtained from random source mongrel dogs (anesthetized with 30 mg/kg pentobarbital sodium intravenously) were suspended for the measurement of isometric force in organ chambers filled with aerated (95% O2 and 5% CO2) modified Krebs-Ringer bicarbonate solution (composition in mM: 118.3 NaCl, 4.7 KCl, 2.5 CaCl2, 1.2 MgSO4, 1.2 KH2 PO4, 25.0 NaHCO3, 0.026 calcium sodium EDTA, and 11.1 dextrose; control solution) at 37° C. In one-half rings, the endothelium was removed by gently rubbing the intimal surface with a cotton swab wetted with control solution. Each ring was stretched to the optimal point on its length-tension curve as determined by the tension developed to norepinephrine (3×10^-7 M) at each level of stretch. The presence of endothelium was determined at the beginning of the experiment by a relaxation to acetylcholine (10^-6 M) during a contraction to norepinephrine at optimal length. The maximal tension of each ring was determined by norepinephrine (10^-4 M). To study responses to ANP, CNP and VNP, the rings were contracted with phenylephrine (10^-6 M). These contractions averaged 30-40% of the maximal contraction to norepinephrine. The peptides were added cumulatively once the contraction had stabilized.
The following commercially available drugs were used: acetylcholine chloride (Sigma Chemical, St. Louis, Mo.), human ANP and human CNP (Peninsula Laboratories, Belmont, Calif.), L-norepinephrine bitartrate (Sigma), phenylephrine bitartrate (Sigma). All drugs were dissolved in distilled water immediately prior to study, and the concentrations are reported as the final molar concentration (M) in the organ chamber.

[3] = tested on: normal rats; test: Cardiorenal actions after intravenous bolus in anesthetized normal rats; type: in vivo, Wistar rats; conditions: for MAP mean arterial pressure / HR heart rate / RAP right atrial pressure / UKV urine potassium excretion / UNaV urine sodium excretion / UV urine volume / UcGMPV urine cGMP volume / PcGMP plasma cGMP: mean ± SEM; for MAP mean arterial pressure: n = 4
Method: as §1
Experiments were conducted in accordance with the Animal Welfare Act. Wistar rats and spontaneously hypertensive rats (SHR) (400 g; Harlan Sprague-Dawley, Indianapolis, Ind.) were anesthetized with Inactin (100 mg/kg; intraperitoneal; BYK Gulden, Konstanz, Germany). The body temperature was maintained between 36° and 38° C. by a heating pad. Tracheostomy was performed; however, the animals were not artificially ventilated. Polyethylene catheters (PE-50; Becton Dickinson Co., Parsippany, N.J.) were placed in the left Jugular vein for infusions of saline and drugs, in the right jugular vein to right atrium to monitor right atrial pressure, and in the carotid artery for the collection of blood samples and to monitor mean arterial pressure. A PE-90 catheter was placed in the bladder for urine collection.
Experiments were conducted in three groups in normal rats: ANP group (n=4), CNP group (n=4), and VNP group (n=4). VNP also was studied in SHR rats (n=4). Intravenous infusions of saline solution (0.9% NaCl) were performed (1 ml/100 gm body weight/hr) through the left jugular vein catheter. After completion of surgery, rats were allowed to stabilize for 30 minutes. In each group, a 15-min baseline period followed. After the baseline period, saline solution (0.9% NaCl) was administered in a bolus fashion (0.1 ml) and was followed by a 15-min period. After the saline period, the peptide (ANP, CNP or VNP) was administered in a bolus fashion (0.1 ml) at 5 μg/kg which was followed by a 15-min period. This was followed by a second bolus (0.1 ml) at 50 μg/kg and a 15-min period. After a 30-min washout, a 15-min recovery period followed. During each experimental period, mean arterial pressure (MAP), heart rate (HR), and right atrial pressure (RAP) were measured. At the midpoint of baseline, second bolus fashion (50 μg/kg) and recovery periods, blood was sampled for plasma cGMP. At the end of each period, urine was measured for volume (UV), and samples were stored for electrolytes and cGMP analysis.
Blood for plasma cGMP analysis was collected into EDTA tubes, immediately placed on ice, and centrifuged at […] at 4° C. Plasma was separated and stored at -20° C. until assay. Urine for cGMP determination was heated to >90° C. before storage. Plasma and urine cGMP were determined by a specific RIA as previously described by A. L. Steiner et al., J. Hypertension, 5 (Suppl. 5) 551-553 (1987).

[4] = tested on: isolated vessels in congestive heart failure dogs; test: Preliminary studies: vasorelaxation in isolated vessels of congestive heart failure dogs; parameters: species or system dog
[5] = normal rats, high dose (50 μg/kg) bolus

CC[C@H](C)[C@@H]1NC(=O)[C@H](CCCNC(=N)N)NC(=O)[C@H](CC(=O)O)NC(=O)[C@H](CC(C)C)NC(=O)[C@H](CCCCN)NC(=O)[C@H](CC(C)C)NC(=O)CNC(=O)[C@H](Cc2ccccc2)NC(=O)[C@@H](NC(=O)CNC(=O)[C@H](CCCCN)NC(=O)[C@H](CO)NC(=O)[C@H](CC(C)C)NC(=O)CN)CSSC[C@@H](C(=O)N[C@@H](CC(N)=O)C(=O)N[C@@H](CO)C(=O)N[C@@H](Cc2ccccc2)C(=O)N[C@@H](CCCNC(=N)N)C(=O)N[C@@H](Cc2ccc(O)cc2)C(=O)O)NC(=O)CNC(=O)[C@H](CC(C)C)NC(=O)CNC(=O)[C@H](CO)NC(=O)[C@H](CCSC)NC(=O)[C@H](CO)NC(=O)CNC1=O [VNP, vasonatrin peptide]
relaxation of pre-contracted vessels (in words) [1]: able to relax
relaxation ([2]; femoral and saphenous arteries): 90-100%
maximal response, percent change in tension from a contraction to phenylephrine ([2]; femoral artery, with endothelium, phenylephrine 10^-6 M): 91 ± 4%
maximal response, percent change in tension from a contraction to phenylephrine ([2]; femoral artery, without endothelium): 89 ± 5%
maximal response, percent change in tension from a contraction to phenylephrine ([2]; femoral vein, with endothelium): 81 ± 6%
maximal response, percent change in tension from a contraction to phenylephrine ([2]; femoral vein, without endothelium): 86 ± 6%
relaxation ([2]; femoral veins): 90%
order of potency ([2]; pulmonary arteries): ANP=VNP>CNP
maximal response, percent change in tension from a contraction to phenylephrine ([2]; pulmonary artery, with endothelium): 57 ± 5%
maximal response, percent change in tension from a contraction to phenylephrine ([2]; pulmonary artery, without endothelium): 63 ± 7%
maximal response, percent change in tension from a contraction to phenylephrine ([2]; pulmonary vein, with endothelium): 71 ± 2%
maximal response, percent change in tension from a contraction to phenylephrine ([2]; pulmonary vein, without endothelium): 84 ± 3%
order of potency ([2]; pulmonary veins without endothelium): VNP>CNP>ANP
maximal response, percent change in tension from a contraction to phenylephrine ([2]; renal artery, with endothelium): 52 ± 4%
maximal response, percent change in tension from a contraction to phenylephrine ([2]; renal artery, without endothelium): 62 ± 12%
maximal response, percent change in tension from a contraction to phenylephrine ([2]; renal vein, with endothelium): 65 ± 6%
maximal response, percent change in tension from a contraction to phenylephrine ([2]; renal vein, without endothelium): 90 ± 4%
maximal response, percent change in tension from a contraction to phenylephrine ([2]; saphenous artery, with endothelium): 73 ± 3%
maximal response, percent change in tension from a contraction to phenylephrine ([2]; saphenous artery, without endothelium): 81 ± 5%
maximal response, percent change in tension from a contraction to phenylephrine ([2]; saphenous vein, with endothelium): 60 ± 11%
maximal response, percent change in tension from a contraction to phenylephrine ([2]; saphenous vein, without endothelium): 89 ± 6%
relaxation ([2]; saphenous veins): 90%
potency for relaxation (order) ([2]; systemic arteries): VNP>ANP≥CNP
relaxation, % of the contraction to phenylephrine ([2]; systemic arteries (femoral, saphenous and renal)): 50-90%
potency for relaxation (order) ([2]; systemic veins): VNP>CNP>ANP
natriuretic action (in words) ([3]; in vivo, rat): potent natriuretic effect
change in MAP and RAP (in words) [3, 5]: significant decrease; also recorded: significantly decreased
change in urine flow, sodium excretion, plasma cGMP and urinary cGMP volume (in words) [3, 5]: significantly increased
increase in urine flow, sodium excretion and urinary cGMP volume compared between peptides [3, 5]: significantly higher with VNP than those of CNP, but were less than those of ANP
MAP mean arterial pressure ([3]; normal rats, iv bolus 5 μg/kg, 15-min period): 93 ± 15 mmHg
HR heart rate ([3]; normal rats, iv bolus 5 μg/kg): 393 ± 20 beats/min
RAP right atrial pressure ([3]; normal rats, iv bolus 5 μg/kg): -3.5 ± 0.9 mmHg
UKV urine potassium excretion ([3]; normal rats, iv bolus 5 μg/kg): 3.3 ± 1.4 µmol/min
UNaV urine sodium excretion ([3]; normal rats, iv bolus 5 μg/kg): 5.3 ± 1.9 µmol/min
UV urine volume ([3]; normal rats, iv bolus 5 μg/kg): 32.2 ± 7.5 µL/min
UcGMPV urine cGMP volume ([3]; normal rats, iv bolus 5 μg/kg): 113 ± 27 pmol/min
HR heart rate ([3]; normal rats, iv bolus 50 μg/kg): 408 ± 25 beats/min
PcGMP plasma cGMP ([3]; normal rats, iv bolus 50 μg/kg): 33.3 ± 8.7 pmol/mL
RAP right atrial pressure ([3]; normal rats, iv bolus 50 μg/kg): -4.3 ± 0.8 mmHg
UKV urine potassium excretion ([3]; normal rats, iv bolus 50 μg/kg): 11.9 ± 4.7 µmol/min
UNaV urine sodium excretion ([3]; normal rats, iv bolus 50 μg/kg): 22.5 ± 2.2 µmol/min
UV urine volume ([3]; normal rats, iv bolus 50 μg/kg): 136 ± 5.5 µL/min
UcGMPV urine cGMP volume ([3]; normal rats, iv bolus 50 μg/kg): 961 ± 82 pmol/min
MAP mean arterial pressure ([3]; normal rats, recovery period after 30-min washout): 93 ± 15 mmHg
HR heart rate ([3]; normal rats, recovery period): 390 ± 20 beats/min
PcGMP plasma cGMP ([3]; normal rats, recovery period): 4.4 ± 1.4 pmol/mL
RAP right atrial pressure ([3]; normal rats, recovery period): -2.9 ± 0.9 mmHg
UKV urine potassium excretion ([3]; normal rats, recovery period): 1.3 ± 0.6 µmol/min
UNaV urine sodium excretion ([3]; normal rats, recovery period): 0.9 ± 0.3 µmol/min
UV urine volume ([3]; normal rats, recovery period): 8.4 ± 2.7 µL/min
UcGMPV urine cGMP volume ([3]; normal rats, recovery period): 88 ± 48 pmol/min
MAP mean arterial pressure ([3]; normal rats, second iv bolus 50 μg/kg, 15-min period): 79 ± 15 mmHg
vasorelaxing actions (in words) [4]: potent vasorelaxing actions

Reference: patent US5583108A, “Vasonatrin peptide and analogs thereof” (Mayo Foundation for Medical Education and Research, priority 1994, dated 1996)
